Data taken from patent US20130252247A1, “KIT FOR SCREENING FOR SKIN-ACTIVATING SUBSTANCES AND COMPRISING THE KLOTHO GENE, AND METHOD FOR SCREENING FOR SKIN-ACTIVATING SUBSTANCES USING THE SAME” (Amorepacific Corporation, priority 2011, published 2013).

Test system: Klotho
Assay: Klotho expression in keratinocytes treated with retinoic acid and retinol, quantitative real-time PCR
Assay type: cell-based, human
Description: In order to examine whether Klotho protein is expressed in skin cells, primers of SEQ ID NOS: 1 and 2, which can amplify Klotho gene (NCBI accession No. NM-004795), were constructed. Then, RT-PCR was performed using the primer set and a probe of SEQ ID NO: 3 (TaqMan™ fluorogenic probe) in order to detect Klotho mRNA in the cDNA of keratinocytes (NHK), fibroblasts (NHF), NHM-promoblack (Normal Human Epidermal Melanocytes (NHEM) juvenile foreskin, Promocell: melanocytes derived from dark-skinned persons), NHM-DP (NHM-dark pigment, Invitrogen: melanocytes derived from dark-skinned persons) and NHM-MP (NHM-moderate pigment, Invitrogen: melanocytes derived from Asian). The PCR reaction was performed for 35 cycles, each consisting of denaturation at 94° C. for 30 sec, annealing at 55° C. for 30 sec, and extension at 72° C. for 60 sec. As a positive control, the cDNA of human embryonic kidney cells (HEK293) known to express Klotho gene was used.
In order to examine the effects of retinoic acid and retinol (known as anti-aging substances) on the expression of Klotho in keratinocytes, quantitative real time PCR was performed under the same conditions as described in Test Example 1, and the expression levels of Klotho protein were examined at 2 days and 8 days after treatment of the cells with each of 0.1 μM and 1 μM of retinoic acid and 1 μM and 10 μM of retinol.

CC1=C(/C=C/C(C)=C/C=C/C(C)=C/CO)C(C)(C)CCC1 [retinol]
expression level of Klotho protein (keratinocytes, 8 days after treatment, 0.1 μM and 1 μM retinoic acid, 1 μM and 10 μM retinol, FIG. 3): significantly increased
expression of Klotho protein (summary statement, found using the kit): increased
